From PMC4894409 (Scientific Reports, 2015)
Where two headings read alike, the source gives them in different places.

Tests used:
[1] = system: mice; assay: Forced swimming (FS) test; type: in vivo, Male Swiss mice; settings: 5 or 10 mg/kg p.o., vs vehicle, p < 0.05
Protocol: Male Swiss mice (weighing between 25–30 g; 6–8 weeks old), provided by Central Animal House of the Federal University of Goiás, were used in all behavioural models. The experimental animals were kept in an intra-laboratory facility cage (32 × 18 × 16 cm) under controlled environmental conditions (23 ± 1 °C, 12 hr light-dark cycle) with access to food and water ad libitum. The experimental protocols (number 104/08) were approved by Ethical Committee of Federal University of Goiás in accordance to the international laws on the care and use of laboratory animals.
In the FS model, mice were randomly divided into 5 groups [control (vehicle), 3 different doses of OAD and IMI]. Mice were exposed to a modified version of FS test[48] after oral administration of vehicle, OAD (5, 10 or 20 mg/kg) or IMI 15 mg/kg. FS apparatus is a cylindrical water container (42 cm in height, 18 cm in diameter) filled with water up to 30 cm (total volume ( [drawing 1] of 7635.06 cm^3 at 24 ± 2 °C). In this model, the initial escape-directed behaviour like swimming and climbing by mouse are generally followed with a relatively passive and immobile posture. The container was cleaned with 10% ethanol solution prior to the exposure of naïve mouse. This test session (6-min duration) was videotaped and the swimming and immobility time was later scored and analyzed.

[2] = system: mice; assay: FS test after AMPT, PCPA, PRAZ or WAY pretreatment (mechanism of antidepressant-like effect of D1); type: in vivo, Male Swiss mice
Protocol: Mice were pretreated (i.p) with saline solution or AMPT 100 mg/kg (catecholamine depletor) 4 h prior to the oral administration of vehicle 10 mL/kg or D1 5 mg/kg. […] In a separate experiment, pretreatment (i.p) of mice with saline solution or PCPA 100 mg/kg (serotonin depletor) for four consecutive days prior to oral administration of vehicle or D1 5 mg/kg was used to investigate effect of serotonin depletion on antidepressant-like activity of this OAD. […] In all the four experiments, oral administration of vehicle or D1 5 mg/kg was followed by FS test (60 min interval between p.o. treatment and behavioural testing).

[3] = system: mice; settings: mouse, in vivo; for behavioural observation: male, Swiss
Protocol: A modified method that was adopted by Malone[57] was used in the present study to evaluate general pharmacological alterations in mice following administration of D1. This test permits the observation of behavioural change, report of possible toxic effect or death occurrence in addition to variations in pharmacological responses to different route of drug administrations. Group of animals were subjected to s.c, i.p, or p.o route of D1 administrations at the doses of 2, 10, 50 or 250 mg/kg or vehicle 10 mL/kg and observed for 7 days.

C=CC(=O)O[C@H]1CC[C@]2(C)[C@H]3CC=C4[C@@H]5CC(C)(C)CC[C@]5(C(=O)O)CC[C@@]4(C)[C@]3(C)CC[C@H]2C1(C)C [D1, Oleanolic acid acrylate]
immobility time in the FS test [1]: reduction
swimming time in the FS test [1]: significant increase
effect of AMPT pretreatment on antidepressant-like effect (swimming time) ([2]; AMPT 100 mg/kg i.p. + D1 5 mg/kg p.o. versus SAL + D1, p > 0.05): did not attenuate
effect of PCPA pretreatment on antidepressant-like effect (swimming time) ([2]; PCPA 100 mg/kg i.p. four days + D1 5 mg/kg p.o. versus SAL + D1, p > 0.05): did not block
effect of PRAZ pretreatment on antidepressant-like effect (swimming time) ([2]; PRAZ 1 mg/kg i.p. + D1 5 mg/kg p.o. versus SAL + D1, p > 0.05): did not block
swimming time in the FS test ([2]; SAL + D1 5 mg/kg p.o. versus SAL + Vehicle, p < 0.05): increased the swimming time
effect of WAY pretreatment on antidepressant-like effect (swimming time) ([2]; WAY 0.3 mg/kg i.p. + D1 5 mg/kg p.o. versus SAL + D1, p < 0.05): significant blockade
behavioural observation [3]: Total recovery from the effects of D1 without any sign of toxicity, weight gain or death occurence
behavioural observation ([3]; 50 mg/kg, 1 hr): Effects after 30 min of administrations persisted
behavioural observation ([3]; 250 mg/kg, 1 hr): Effects after 30 min of administrations persisted
behavioural observation (text) ([3]; 250 mg/kg): reduction in exploratory activity
